Measurements: US20100104566A1, “ANTITUMOR COMBINATION COMPRISING A MORPHOLINYL ANTHRACYCLINE AND AN ANTIBODY” (NERVIANO MEDICAL SCIENCES S.R.L., priority 2007, published 2010)

Tested on: Human prostate carcinoma DU145 cells
Test: In vivo antitumor efficacy of nemorubicin in combination with bevacizumab (tumor growth delay)
Parameters: species or system Balb Nu/Nu, male mice (athymic mice)
Details: DU145 s.c. in athymic mice; for Time to reach 1 g: advanced tumors, bevacizumab 20 mg/kg i.p. day 9, 13, 17, 21, 25, 29, nemorubicin 0.065 mg/kg i.v. day 9, 16, 23; for T-C: delay vs control to reach 1 g, bevacizumab 20 mg/kg i.p., nemorubicin 0.065 mg/kg i.v. q7dx3
Description: Materials and Methods: Balb Nu/Nu, male mice (athymic mice from Harlan, Italy) were maintained in cages with paper filter covers, food and bedding sterilized and water acidified. Human prostate carcinoma DU145 cells (from American Type Culture Collection) were implanted subcutaneously in athymic mice (2.5×10^6/cells mice). […] Drug treatments were performed on advanced tumors (when the tumors were palpable). Nemorubicin and bevacizumab were prepared immediately before use ad administered to mice in a volume of 10 ml/kg. Nemorubicin was administered as hydrochloride salt intravenously at a dose of 0.065 mg/kg and treatments were repeated weekly for 3 weeks. Bevacizumab was administered intraperitoneally at a dose of 20 mg/kg on the days 9, 13, 17, 21, 25 and 29 from the day of cell injection. When both compounds were administered on the same day, bevacizumab was administered intraperitoneally immediately before the intravenous injection of nemorubicin. Tumor growth and net body weight were evaluated every 3 days. Tumor growth was assessed by caliper. The two diameters were recorded, and the tumor weight was calculated according to the following formula: length (mm)×width^2 (mm)/2. The effect of the antitumor treatment was determined as the delay in the onset of an exponential growth of tumors [see for reference, Anti Cancer Drugs 7: 437-60, 1996]. This delay (T-C value) was defined as the difference of the time (in days) required for the treatment group (T) and the control group (C) tumors to reach a predetermined size (e.g. 1 g). Toxicity was evaluated on the basis of the body weight reduction.

Row | Compound | Time to reach 1 g [days] | T-C [days]
1 | COc1cccc2c1C(=O)c1c(O)c3c(c(O)c1C2=O)C[C@@](O)(C(=O)CO)C[C@@H]3O[C@H]1C[C@H](N2CCO[C@H](OC)C2)[C@H](O)[C@H](C)O1 [Nemorubicin, (8S-cis, 2″S)-7,8,9,10-tetrahydro-6,8,11-trihydroxy-8-(hydroxyacetyl)-1-methoxy-10-{[2,3,6-trideoxy-3-(2-methoxy-4-morpholinyl)-α-L-lyxo-hexopyranosyl]oxy}-5,12-naphthacenedione] | 18.95 | 4.68
2 | Bevacizumab: monoclonal antibody directed against the vascular endothelial growth factor (VEGF) | 21.31 | 7.04
